Data on three molecules can be found in patent US8217023B2, “19-nor-vitamin D analogs with 1,2- or 3,2-cyclopentene ring” (Wisconsin Alumni Research Foundation, priority 2009, dated 2012).

Structures are written as SMILES. Entries after “also recorded” stand apart in the source; their conditions may differ. Read-outs that look alike come from different tables or passages of the source. Bounds are passed on as bounds.

The test system of test [1] is 24-hydroxylase (24Ohase) gene promoter in ROS 17/2.8 (bone) cells. Briefly: In vitro transcription assay (24-hydroxylase promoter luciferase reporter). It is filed as cell-based. The note with it: for EC50: 24-hydroxylase (CYP-24) promoter driving luciferase reporter, read-out: EC50, transcriptional activity in bone cells; for transcriptional activity in bone cells (in words): FIG. 3. On the procedure:
Transcription activity was measured in ROS 17/2.8 (bone) cells that were stably transfected with a 24-hydroxylase (24Ohase) gene promoter upstream of a luciferase reporter gene (Arbour et al., 1998). Cells were given a range of doses. Sixteen hours after dosing the cells were harvested and luciferase activities were measured using a luminometer.
RLU=relative luciferase units.
Background: A reporter such as luciferase makes a cellular process visible.

Test [2] deals with T1, full-length recombinant rat vitamin D receptor (Rattus norvegicus, UniProt P13053).
T1 construct: Full-length recombinant rat receptor was expressed in E. coli; histidine tag (C); made in house; host or cells: E. coli BL21 (DE3) Codon Plus RTL
T1 sequence (P13053 1-423): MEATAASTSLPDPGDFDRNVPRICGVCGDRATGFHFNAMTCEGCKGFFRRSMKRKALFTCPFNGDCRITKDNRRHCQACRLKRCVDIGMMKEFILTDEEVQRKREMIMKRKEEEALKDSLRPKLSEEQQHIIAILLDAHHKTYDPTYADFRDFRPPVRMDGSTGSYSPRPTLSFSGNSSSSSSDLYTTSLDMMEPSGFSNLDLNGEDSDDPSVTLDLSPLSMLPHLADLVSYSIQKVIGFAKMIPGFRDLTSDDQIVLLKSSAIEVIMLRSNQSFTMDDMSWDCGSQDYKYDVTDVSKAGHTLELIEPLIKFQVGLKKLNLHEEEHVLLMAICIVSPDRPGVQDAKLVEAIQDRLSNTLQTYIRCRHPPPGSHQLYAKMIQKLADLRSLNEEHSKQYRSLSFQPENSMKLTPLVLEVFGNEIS
Nature of the test: Vitamin D receptor binding (competition with [3H]-1,25(OH)2D3). The method, then:
Full-length recombinant rat receptor was expressed in E. coli BL21 (DE3) Codon Plus RTL cells and purified to homogeneity using two different column chromatography systems. The first system was a nickel affinity resin that utilizes the C-terminal histidine tag on this protein. The protein that was eluted from this resin was further purified using ion exchange chromatography (S-Sepharose Fast Flow). Aliquots of the purified protein were quick frozen in liquid nitrogen and stored at −80° C. until use. For use in binding assays, the protein was diluted in TEDK50 (50 mM Tris, 1.5 mM EDTA, pH7.4, 5 mM DTT, 150 mM KCl) with 0.1% Chaps detergent. The receptor protein and ligand concentration were optimized such that no more than 20% of the added radiolabeled ligand was bound to the receptor.
Radiolabeled and unlabeled ligands were added to 100 mcl of the diluted protein at a final ethanol concentration of ≦10%, mixed and incubated overnight on ice to reach binding equilibrium. The following day, 100 mcl of hydroxylapatite slurry (50%) was added to each tube and mixed at 10-minute intervals for 30 minutes. The hydroxylapaptite was collected by centrifugation and then washed three times with Tris-EDTA buffer (50 mM Tris, 1.5 mM EDTA, pH 7.4) containing 0.5% Titron X-100. After the final wash, the pellets were transferred to scintillation vials containing 4 ml of Biosafe II scintillation cocktail, mixed and placed in a scintillation counter. Total binding was determined from the tubes containing only radiolabeled ligand.

Test [3] relates to Human promyelocytic leukemia (HL60) cells. Briefly: HL-60 differentiation (nitro blue tetrazolium reduction). It is filed as cell-based. The note with it: for EC50: HL-60 cells into monocytes, read-out: EC50, HL-60 cell differentiation. On the procedure: The study drugs were dissolved in ethanol and the concentrations determined using UV spectrophotometry. Serial dilutions were prepared so that a range of drug concentrations could be tested without changing the final concentration of ethanol (≦0.2%) present in the cell cultures.
Human promyelocytic leukemia (HL60) cells were grown in RPMI-1640 medium containing 10% fetal bovine serum. The cells were incubated at 37° C. in the presence of 5% CO2.
HL60 cells were plated at 1.2×10^5 cells/ml. Eighteen hours after plating, cells in duplicate were treated with drug. Four days later, the cells were harvested and a nitro blue tetrazolium reduction assay was performed (Collins et al., 1979; J. Exp. Med. 149:969-974). The percentage of differentiated cells was determined by counting a total of 200 cells and recording the number that contained intracellular black-blue formazan deposits. Verification of differentiation to monocytic cells was determined by measuring phagocytic activity (data not shown).

As for `C[C@H](CCCC(C)(C)O)C1CCC2/C(=C/C=C3/C[C@@H]4CCC=C4[C@H](O)C3)CCC[C@@]21C` (stereo partly drawn) [DO-REVB, 3,2-cyclopentene-1α-25-dihydroxy-19-nor-vitamin D3], in test [1], the EC50 came out at 10 nM and the “transcriptional activity in bone cells (in words)” value is recorded as “weak transcriptional activity”. In test [1] (relative to 1,25-(OH)2D3), the “transcription of the 24-hydroxylase gene, times less potent than 1,25-(OH)2D3” value is around 20 times. For the same molecule, in test [1] (relative to the native hormone), the “gene transactivation, lower potency than the native hormone” value is 2 fold. For the same molecule, the Ki in test [2] (full-length recombinant rat vitamin D receptor, read-out: Ki, competition with [3H]-1,25(OH)2D3 for binding to VDR) turned out to be 2 nM. Besides, in test [2] (relative to 1,25-(OH)2D3), the “VDR affinity, times less potent than 1,25-(OH)2D3” value is given as around 20 times. Besides, in test [3] (Homo sapiens), the 50% effective concentration (EC50) was determined as 30 nM. Moreover, the “HL-60 cell differentiation, times less potent than the natural hormone” value in test [3] (relative to the natural hormone) is listed as around 10 times.
As for `C=C1/C(=C\C=C2/CCC[C@]3(C)[C@@H]([C@H](C)CCCC(C)(C)O)CC[C@@H]23)C[C@@H](O)C[C@@H]1O` [1α,25-dihydroxyvitamin D3, reference compound], the EC50 amounted to 0.2 nM in test [1] and 2 nM in test [3].
As for `C[C@H](CCCC(C)(C)O)C1CCC2/C(=C/C=C3\C[C@@H]4CCC=C4[C@H](O)C3)CCC[C@@]21C` (stereo partly drawn) [DO-REVA, 1,2-cyclopentene-25-hydroxy-19-nor-vitamin D3], in test [1], the EC50 is above 1000 nM and the “transcriptional activity in bone cells (in words)” value was “weak transcriptional activity; also recorded: measurable transcription activity at the higher concentrations tested; also recorded: measurable transcriptional activity at the higher concentrations tested”. In test [2] (FIG. 1), the “VDR binding activity (in words)” value is recorded as “little to no binding affinity; also recorded: little to no receptor binding activity”. Besides, the “HL-60 cell differentiation activity (in words)” value in test [3] (FIG. 2) is “little to no ability to induce differentiation; also recorded: little to no cellular differentiation activity”. Moreover, in test [3] (Homo sapiens), the EC50 was above 1000 nM.

Broadly, the EC50 is the midpoint of the concentration-response curve. The term Ki denotes a dissociation constant, usually derived from enzyme kinetics or from competition with a known ligand.
